# Strand notation (5' to 3'): a small letter for the sugar, then the base; units joined by * are phosphorothioate-linked, units joined directly phosphodiester-linked; [ ] holds rarer units or linkages, { } end groups; capitals alone tell only the bases. e = 2'-O-(2-methoxyethyl) (MOE); [5mC] = 5-methylcytosine; d = 2'-deoxy (DNA)
# Assays:
# [1] = system: human PKK mRNA; assay: Antisense inhibition of human PKK mRNA in HepaRG cells, 3,000 nM (Example 1); format: cell-based; details: relative to untreated control cells
# Summary of the method: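 HepaRG cells, 20,000 per well, were electroporated with 3,000 nM 5-10-5 MOE gapmer (phosphorothioate, 5-methylcytosine). After about 24 h, PKK mRNA was measured by qRT-PCR with primer probe set RTS3454 and normalised to RIBOGREEN total RNA. Values are percent inhibition versus untreated cells.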
# [2] = system: human PKK mRNA; assay: Dose-dependent antisense inhibition of human PKK in HepaRG cells, 0.12-10.00 uM (Example 4); format: cell-based; details: electroporation, ~16 h
# Method: Cells were plated at a density of 20,000 cells per well and transfected using electroporation with 0.12 μM, 0.37 μM, 1.11 μM, 3.33 μM, and 10.00 μM concentrations of antisense oligonucleotide. After a treatment period of approximately 16 hours, RNA was isolated from the cells and PKK mRNA levels were measured by quantitative real-time PCR. Human PKK primer probe set RTS3454 was used to measure mRNA levels. PKK mRNA levels were adjusted according to total RNA content, as measured by RIBOGREEN®. The antisense oligonucleotides were tested in a series of experiments that had similar culture conditions. Results are presented as percent inhibition of PKK, relative to untreated control cells.
# The half maximal inhibitory concentration (IC50) of each oligonucleotide is also presented.
# [3] = Table 3, HepaRG cells, electroporation with 3,000 nM antisense oligonucleotide, approx. 24 hours, PKK mRNA by RT-PCR (RTS3454)
# [4] = Table 1, PKK mRNA, HepaRG cells, 3,000 nM, electroporation, ~24 h
# [5] = Table 4, HepaRG cells, electroporation with 3,000 nM antisense oligonucleotide, approx. 24 hours, PKK mRNA by RT-PCR (RTS3454)
Substance,"% inhibition [1, 3] [%]","percent inhibition of PKK at 0.12 μM ([2]; Table 33, 0.12 μM) [%]","percent inhibition of PKK at 0.37 μM ([2]; Table 33, 0.37 μM) [%]","percent inhibition of PKK at 1.11 μM ([2]; Table 33, 1.11 μM) [%]","percent inhibition of PKK at 3.33 μM ([2]; Table 33, 3.33 μM) [%]","percent inhibition of PKK at 10.00 μM ([2]; Table 33, 10.00 μM) [%]","IC50 ([2]; Table 33, PKK mRNA) [µM]","% inhibition [1, 4] [%]","percent inhibition of PKK at 0.12 μM ([2]; Table 32, 0.12 μM) [%]","percent inhibition of PKK at 0.37 μM ([2]; Table 32, 0.37 μM) [%]","percent inhibition of PKK at 1.11 μM ([2]; Table 32, 1.11 μM) [%]","percent inhibition of PKK at 3.33 μM ([2]; Table 32, 3.33 μM) [%]","percent inhibition of PKK at 10.00 μM ([2]; Table 32, 10.00 μM) [%]","IC50 ([2]; Table 32, PKK mRNA) [µM]","% inhibition [1, 5] [%]","% inhibition ([1]; Table 2, PKK mRNA, HepaRG cells, 3,000 nM, electroporation, ~24 h) [%]"
531123 (antisense eT*e[5mC]*e[5mC]*e[5mC]*eA*dG*d[5mC]*dT*d[5mC]*d[5mC]*dA*dG*dT*d[5mC]*dA*e[5mC]*e[5mC]*eA*e[5mC]*e[5mC]) [compound 531123],74,14,43,51,71,64,0.9,,,,,,,,,
531004 (eA*eG*eA*eG*eT*dA*dA*d[5mC]*d[5mC]*dA*dG*dA*dG*d[5mC]*dT*e[5mC]*e[5mC]*e[5mC]*eT*eT; antisense) [compound 531004],,,,,,,,76,0,14,25,71,84,2.1,,
530933 (antisense eT*eG*eG*eA*eG*dG*dT*dG*dA*dG*dT*d[5mC]*dT*d[5mC]*dT*eT*eG*eT*e[5mC]*eA) [compound 530933],,,,,,,,76,15,13,42,67,66,1.7,,
530970 (antisense eT*eT*eG*eG*eT*dG*dT*dG*d[5mC]*d[5mC]*dA*d[5mC]*dT*dT*dT*e[5mC]*eA*eG*eA*eT) [compound 530970],,,,,,,,74,1,0,66,76,84,1,,
531110 (antisense eG*e[5mC]*e[5mC]*eT*eG*dT*dT*dT*dG*dG*dT*dG*dG*dT*d[5mC]*eT*e[5mC]*eT*eT*e[5mC]) [compound 531110],86,14,29,49,76,85,1.1,,,,,,,,,
531005 (e[5mC]*eT*e[5mC]*eA*eA*dA*dG*dA*dG*dT*dA*dA*d[5mC]*d[5mC]*dA*eG*eA*eG*e[5mC]*eT; antisense) [compound 531005],,,,,,,,76,14,28,61,73,77,0.9,,
530992 (eG*eT*e[5mC]*eA*e[5mC]*dA*dT*dT*d[5mC]*dA*dA*dT*dT*d[5mC]*dT*eT*e[5mC]*eT*e[5mC]*e[5mC]; antisense) [compound 530992],,,,,,,,70,0,50,63,83,80,0.7,,
530988 (eT*e[5mC]*e[5mC]*eA*eA*dA*dG*dT*d[5mC]*dA*dA*d[5mC]*dT*d[5mC]*d[5mC]*e[5mC]*eG*eG*eG*eT; antisense) [compound 530988],,,,,,,,76,0,25,54,86,78,0.9,,
531172 (antisense eT*eT*e[5mC]*eA*eA*dG*d[5mC]*d[5mC]*dT*dG*dG*dG*d[5mC]*dA*dG*e[5mC]*eA*e[5mC]*eA*eG) [compound 531172],,0,16,37,60,60,2.1,,,,,,,,71,
530967 (antisense e[5mC]*eA*eA*e[5mC]*e[5mC]*dA*dA*dT*dT*dT*d[5mC]*dT*dG*dA*dA*eA*eG*eG*eG*e[5mC]) [compound 530967],,,,,,,,69,30,36,48,82,91,0.7,,
530971 (antisense eG*eG*eA*eA*e[5mC]*dT*dT*dG*dG*dT*dG*dT*dG*d[5mC]*d[5mC]*eA*e[5mC]*eT*eT*eT) [compound 530971],,,,,,,,85,12,40,52,66,70,1.3,,
531002 (eG*eA*eG*e[5mC]*eT*d[5mC]*d[5mC]*d[5mC]*dT*dT*dG*dT*dG*dT*d[5mC]*e[5mC]*e[5mC]*eA*eT*eA; antisense) [compound 531002],,,,,,,,85,6,28,58,82,86,0.9,,
531232 (e[5mC]*eT*eG*eT*eA*d[5mC]*dT*dA*dG*dT*dT*dT*d[5mC]*d[5mC]*dT*eA*eT*eA*eA*e[5mC]; antisense) [compound 531232],,15,26,40,62,76,1.7,,,,,,,,85,
531235 (eT*e[5mC]*eA*e[5mC]*eT*dG*dT*dA*d[5mC]*dT*dA*dG*dT*dT*dT*e[5mC]*e[5mC]*eT*eA*eT; antisense) [compound 531235],,27,55,62,84,95,0.4,,,,,,,,86,
531121 (antisense eT*eT*eG*eG*eT*d[5mC]*dT*dA*d[5mC]*dA*dG*dA*dT*dT*d[5mC]*eA*eA*eT*eG*e[5mC]) [compound 531121],72,0,13,47,69,79,1.5,,,,,,,,,
531078 (eA*eG*e[5mC]*eA*eG*d[5mC]*dT*d[5mC]*dT*dG*dA*dG*dT*dG*d[5mC]*eA*e[5mC]*eT*eG*eT; antisense) [compound 531078],,,,,,,,,10,27,54,69,92,1.1,,77
